Data from PMC5479350 (Journal of virological methods, 2017).
Several values for one entry are separate records, joined by “and”; a condition that tells them apart may be missing. Equal entries are not always repeated. Where two headings read alike, the source gives them in different places.

How the values were obtained:
[1] = system: proliferating, uninfected Vero 76 cells
[2] = system: Chikungunya virus (S27 strain); assay: microbe, parasite or virus in culture; assay type: cell-based; settings: for EC50: Chikungunya virus, Vero 76, read-out: EC50 (mean 50% effective, virus-inhibitory concentration ± SD)
[3] = system: Junin virus (Candid #1 strain); assay type: cell-based
[4] = system: Dengue virus Type 2 (New Guinea C strain); assay: microbe, parasite or virus in culture; assay type: cell-based; settings: for EC50: Dengue virus, Vero 76, read-out: EC50 (mean 50% effective, virus-inhibitory concentration ± SD)
[5] = in vitro; settings: African green monkey

## Nc1cc2nc[nH]c2c(=O)[nH]1 [3-Deazaguanine]
[1]; African green monkey
  Mean 50% cytotoxic concentration ± SD, Neutral Red: 3.0 ± 1.1 µM
  Mean 50% cytotoxic concentration ± SD, Viral ToxGlo: 1.5 ± 0.7 µM
[2]
  Inhibition of chikungunya virus (in words): inhibited
  SI (Selectivity Index, CC50/EC50): >8
  EC50: 13 ± 8.3 µM
[3]
  Inhibition of Junin virus (in words): inhibited
  SI (Selectivity Index, CC50/EC50): >63
[4]
  SI (Selectivity Index, CC50/EC50): >22
  EC50: 4.6 ± 6.3 µM
[5]; CC50 with ALB-F
  CC50: 83 to 93 µM
[5]; CC50 with all other dyes including ALB-A
  CC50: 2.4 to 7 µM

## O=c1cnn([C@@H]2O[C@H](CO)[C@@H](O)[C@H]2O)c(=O)[nH]1 [6-Azauridine]
[1]; 4 days, N=3
  Mean 50% cytotoxic concentration ± SD, ALB-Abs: 48.0 ± 11.5 µM and 48.0 ± 19.9 µM
  Mean 50% cytotoxic concentration ± SD, ALB-Fluor: 69.0 ± 10.5 μM and 94.0 ± 10.4 ^*^, ^φ μM
  Mean 50% cytotoxic concentration ± SD, Neutral Red: 6.2 ± 0.9 µM
  Mean 50% cytotoxic concentration ± SD, Viral ToxGlo: 17.0 ± 5.3 µM
  Mean 50% cytotoxic concentration ± SD, WST-1: 6.2 ± 1.0 μM and 7.1 ± 1.8 ^b μM
[2]
  Inhibition of chikungunya virus (in words): inhibited
  SI (Selectivity Index, CC50/EC50): >13
  EC50: 8 ± 10.4 µM
[3]
  Inhibition of Junin virus (in words): inhibited
  SI (Selectivity Index, CC50/EC50): >151
[4]
  SI (Selectivity Index, CC50/EC50): >12
  EC50: 8.4 ± 10.8 µM
[5]; CC50 (toxicity) with ALB-A and ALB-F
  CC50: 48 to 92 µM
[5]; CC50 (toxicity) with NR, VTG, and WST-1
  CC50: 6.1 to 17.5 µM

## Nc1ncnc2c([C@@H]3N[C@H](CO)[C@@H](O)[C@H]3O)c[nH]c12 [BCX4430]
[2]
  EC50: > 100 µM
[4]
  Inhibition of dengue virus (in words): weak dengue-inhibitory activity
  SI (Selectivity Index, CC50/EC50): >3
  EC50: 37 ± 22 µM

## C#Cc1c(C(N)=O)ncn1[C@@H]1O[C@H](CO)[C@@H](O)[C@H]1O [EICAR, 5-ethynyl-1-beta-D-ribofuranosylimidazole-4-carboxamide]
[1]; 4 days, N=3
  Mean 50% cytotoxic concentration ± SD, ALB-Abs: 4.9 ± 1.4 µM and 3.9 ± 1.3 µM
  Mean 50% cytotoxic concentration ± SD, ALB-Fluor: 9.5 ± 4.2 µM and 8.2 ± 2.2 µM
  Mean 50% cytotoxic concentration ± SD, Neutral Red: 2.9 ± 1.0 µM
  Mean 50% cytotoxic concentration ± SD, Viral ToxGlo: 2.7 ± 1.4 µM
  Mean 50% cytotoxic concentration ± SD, WST-1: 2.8 ± 1.1 µM and 3.9 ± 1.3 µM
[2]
  Inhibition of chikungunya virus (in words): inhibited
  SI (Selectivity Index, CC50/EC50): >10
  EC50: 10.3 ± 13 µM
[3]
  Inhibition of Junin virus (in words): inhibited
  SI (Selectivity Index, CC50/EC50): >52
[4]
  SI (Selectivity Index, CC50/EC50): >8
  EC50: 13.3 ± 22.1 µM
[5]; CC50, range over the dyes
  CC50: 1.5 to 8.9 µM

## NC(=O)c1nc(F)c[nH]c1=O [Favipiravir]
[2]
  EC50: > 100 µM
[3]
  Inhibition of Junin virus (in words): inhibited
  SI (Selectivity Index, CC50/EC50): >23
[4]
  EC50: > 100 µM

## COc1c(C)c2c(c(O)c1C/C=C(\C)CCC(=O)O)C(=O)OC2 [Mycophenolic acid, mycophenolic acid]
[1]; 4 days, N=3
  Mean 50% cytotoxic concentration ± SD, ALB-Abs: 1.4 ± 0.3 µM and 1.2 ± 0.2 µM
  Mean 50% cytotoxic concentration ± SD, ALB-Fluor: 1.9 ± 0.1 µM and 2.5 ± 0.5 µM
  Mean 50% cytotoxic concentration ± SD, Neutral Red: 0.8 ± 0.6 µM
  Mean 50% cytotoxic concentration ± SD, Viral ToxGlo: 0.7 ± 0.2 µM
  Mean 50% cytotoxic concentration ± SD, WST-1: 0.5 ± 0.1 µM
[2]
  Inhibition of chikungunya virus (in words): inhibited
  SI (Selectivity Index, CC50/EC50): >61
  EC50: 1.6 ± 1.7 µM
[3]
  Inhibition of Junin virus (in words): inhibited
  SI (Selectivity Index, CC50/EC50): >100
[4]
  SI (Selectivity Index, CC50/EC50): >22
  EC50: 4.5 ± 6.6 µM
[5]; CC50, range over the dyes
  CC50: 0.8 to 2.5 µM

## NC(=O)c1ncn([C@@H]2O[C@H](CO)[C@@H](O)[C@H]2O)n1 [Ribavirin, 1-beta-D-ribofuranosyl-1,2,4-triazole-3-carboxamide]
[2]
  EC50: > 100 µM
[3]
  Inhibition of Junin virus (in words): inhibited
  SI (Selectivity Index, CC50/EC50): >7
[4]
  EC50: > 100 µM

## NC(=O)c1csc([C@@H]2O[C@H](CO)[C@@H](O)[C@H]2O)n1 [Tiazofurin]
[2]
  Inhibition of chikungunya virus (in words): ineffective
  EC50: > 100 µM
[3]
  Inhibition of Junin virus (in words): ineffective
[4]
  Inhibition of dengue virus (in words): ineffective
  EC50: > 100 µM
